Assay results as given in patent US12358932B2, “Chemical compounds” (BORAH, INC., priority 2019, dated 2025).

The molecules below were run against T1, Recombinant human PDE4B (Homo sapiens, UniProt Q07343) (assay: PDE4B Phosphodiesterase Assay). Settings: compound list; + = noted target activity.
T1 construct: aa 305-end; GST (N); made in house; host or cells: Sf9 insect cells (baculovirus)
Assay type: biochemical
Design: key to Activity Note: PDE4: The (+) symbols identify a compound of the present disclosure with the noted target activity; +*: The (*) symbols indicate preferential activity, where the greater number identifies the most preferred compounds; +**: The (*) symbols indicate preferential activity, where the greater number identifies the most preferred compounds; +***: The (*) symbols indicate preferential activity, where the greater number identifies the most preferred compounds
Description: The assay is based on the fluorescence polarization measuring AMP/GMP production as a result of the enzyme activity by displacement of Tracer binding to the AMP/GMP antibody. • Reaction Buffer: 10 mM Tris-HCl, pH 7.5, 5 mM MgCl2, 0.01% Brij 35, 1 mM DTT and 1% DMSO. • Enzyme: Recombinant human PDE4B (Gene Accession #NM_002600; aa 305-end) was expressed by baculovirus in Sf9 insect cells using an N-terminal GST tag. Mw=78 kDa. • Substrate: 1 μM cAMP • Detection: Transcreener® AMP2/GMP2 Antibody AMP2/GMP2 AlexaFluor 633 Tracer Reaction Procedure: • 1. Prepared indicated enzyme and substrate in freshly prepared Reaction Buffer • 2. Delivered enzyme solution into the reaction well • 3. Delivered compounds in 100% DMSO into the enzyme solution by Acoustic technology (Echo550; nanoliter range), incubated for 10 min at room temperature • 4. Delivered substrate solution into the reaction well to initiate the reaction • 5. Incubated for 1 h at room temperature • 6. Added detection mixture (Tracer and antibody in the stop buffer) to stop the reaction and incubated for 90 min with gentle mixing. The fluorescence polarization was measured at Ex/Em 620/688.
Data Analysis: The FP signals were converted into nM product based on an AMP/GMP standard curve and calculated % Enzyme activity relative to DMSO control by Excel. The curve fit was performed using GraphPad prism.

T1 sequence (Q07343 305-736 limits assumed): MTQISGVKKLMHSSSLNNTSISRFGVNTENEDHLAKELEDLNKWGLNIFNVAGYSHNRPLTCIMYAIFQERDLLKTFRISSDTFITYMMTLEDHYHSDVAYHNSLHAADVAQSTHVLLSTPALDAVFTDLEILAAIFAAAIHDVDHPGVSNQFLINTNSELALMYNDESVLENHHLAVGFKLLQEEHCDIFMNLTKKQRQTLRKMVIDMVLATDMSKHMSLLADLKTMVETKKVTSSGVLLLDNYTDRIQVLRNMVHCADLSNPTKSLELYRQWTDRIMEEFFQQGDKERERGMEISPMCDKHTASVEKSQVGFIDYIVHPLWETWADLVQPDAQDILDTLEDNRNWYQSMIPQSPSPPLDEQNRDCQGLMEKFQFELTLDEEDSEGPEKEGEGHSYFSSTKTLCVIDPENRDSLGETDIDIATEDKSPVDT

SMILES	Activity Note: PDE4
Cc1cnc(Nc2ccc3c(c2)COB3O)nc1NC(CCO)CCO [3-((2-((1-hydroxy-1,3-dihydrobenzo[c][1,2]oxaborol-5-yl)amino)-5-methylpyrimidin-4-yl)amino)pentane-1,5-diol]	+
Cc1cnc(Nc2ccc3c(c2)COB3O)nc1NCc1cccc(Cl)c1 [5-((4-((3-chlorobenzyl)amino)-5-methylpyrimidin-2-yl)amino)benzo[c][1,2]oxaborol-1(3H)-ol]	+
Cc1cnc(Nc2ccc3c(c2)COB3O)nc1NCc1ccc(Cl)cc1 [5-((4-((4-chlorobenzyl)amino)-5-methylpyrimidin-2-yl)amino)benzo[c][1,2]oxaborol-1(3H)-ol]	+
OB1OCc2cc(Nc3ncc(Cl)c(NCc4ccccc4)n3)ccc21 [5-((4-(benzylamino)-5-chloropyrimidin-2-yl)amino)benzo[c][1,2]oxaborol-1(3H)-ol]	+
OB1OCc2cc(Nc3ncc(C(F)(F)F)c(NC4CCCC4)n3)ccc21 [5-((4-(cyclopentylamino)-5-(trifluoromethyl)pyrimidin-2-yl)amino)benzo[c][1,2]oxaborol-1(3H)-ol]	+
Cc1cnc(Nc2ccc3c(c2)COB3O)nc1OC1CCCCC1 [5-((4-(cyclohexyloxy)-5-methylpyrimidin-2-yl)amino)benzo[c][1,2]oxaborol-1(3H)-ol]	+
Cc1cnc(Nc2ccc3c(c2)COB3O)nc1Nc1ccccc1F [5-((4-((2-fluorophenyl)amino)-5-methylpyrimidin-2-yl)amino)benzo[c][1,2]oxaborol-1(3H)-ol]	+
OB1OCc2cc(Nc3ncc(C(F)(F)F)c(NCc4ccccc4)n3)ccc21 [5-((4-(benzylamino)-5-(trifluoromethyl)pyrimidin-2-yl)amino)benzo[c][1,2]oxaborol-1(3H)-ol]	+
OB1OCc2cc(Nc3nccc(NC4CCCCC4)n3)ccc21 [5-((4-(cyclohexylamino)pyrimidin-2-yl)amino)benzo[c][1,2]oxaborol-1(3H)-ol]	+
Cc1cnc(Nc2ccc3c(c2)COB3O)nc1NCCC1CC1 [5-((4-((2-cyclopropylethyl)amino)-5-methylpyrimidin-2-yl)amino)benzo[c][1,2]oxaborol-1(3H)-ol]	+
Cc1cnc(Nc2ccc3c(c2)COB3O)nc1NC1CCCCC1 [5-((4-(cyclohexylamino)-5-methylpyrimidin-2-yl)amino)benzo[c][1,2]oxaborol-1(3H)-ol]	+
OB1OCc2cc(Nc3ncc(F)c(NCc4ccccc4)n3)ccc21 [5-((4-(benzylamino)-5-fluoropyrimidin-2-yl)amino)benzo[c][1,2]oxaborol-1(3H)-ol]	+
COc1ccccc1Nc1nc(Nc2ccc3c(c2)COB3O)ncc1C [5-((4-((2-methoxyphenyl)amino)-5-methylpyrimidin-2-yl)amino)benzo[c][1,2]oxaborol-1(3H)-ol]	+
Cc1cnc(Nc2ccc3c(c2)COB3O)nc1NC(CCF)CCF [5-((4-((1,5-difluoropentan-3-yl)amino)-5-methylpyrimidin-2-yl)amino)benzo[c][1,2]oxaborol-1(3H)-ol]	+
OB1OCc2cc(Nc3ncc(C(F)(F)F)c(NCCC4CC4)n3)ccc21 [5-((4-((2-cyclopropylethyl)amino)-5-(trifluoromethyl)pyrimidin-2-yl)amino)benzo[c][1,2]oxaborol-1(3H)-ol]	+
CCC(CO)Nc1nc(Nc2ccc3c(c2)COB3O)ncc1C (stereo not shown) [5-((4-((1-hydroxybutan-2-yl)amino)-5-methylpyrimidin-2-yl)amino)benzo[c][1,2]oxaborol-1(3H)-ol]	+
OB1OCc2cc(Nc3ncc(F)c(NCCC4CC4)n3)ccc21 [5-((4-((2-cyclopropylethyl)amino)-5-fluoropyrimidin-2-yl)amino)benzo[c][1,2]oxaborol-1(3H)-ol]	+

Other lines, results leading:

Activity Note: PDE4	SMILES
+	CCC(Nc1nc(Nc2ccc3c(c2)COB3O)ncc1C)c1ccccc1 (stereo not shown) [5-((5-methyl-4-((1-phenylpropyl)amino)pyrimidin-2-yl)amino)benzo[c][1,2]oxaborol-1(3H)-ol]
+	Cc1ccccc1Nc1nc(Nc2ccc3c(c2)COB3O)ncc1C [5-((5-methyl-4-(o-tolylamino)pyrimidin-2-yl)amino)benzo[c][1,2]oxaborol-1(3H)-ol]
+	CCC(C)Nc1nc(Nc2ccc3c(c2)COB3O)ncc1C (stereo not shown) [5-((4-(sec-butylamino)-5-methylpyrimidin-2-yl)amino)benzo[c][1,2]oxaborol-1(3H)-ol]
+	CCCC(CC)Nc1nc(Nc2ccc3c(c2)COB3O)ncc1Cl (stereo not shown) [5-((5-chloro-4-(hexan-3-ylamino)pyrimidin-2-yl)amino)benzo[c][1,2]oxaborol-1(3H)-ol]
+	CCC(CC)Nc1nc(Nc2ccc3c(c2)COB3O)ncc1C(F)(F)F [5-((4-(pentan-3-ylamino)-5-(trifluoromethyl)pyrimidin-2-yl)amino)benzo[c][1,2]oxaborol-1(3H)-ol]
+	CCCC(CC)Nc1nc(Nc2ccc3c(c2)COB3O)ncc1F (stereo not shown) [5-((5-fluoro-4-(hexan-3-ylamino)pyrimidin-2-yl)amino)benzo[c][1,2]oxaborol-1(3H)-ol]
+	CCC(C)Nc1nc(Nc2ccc3c(c2)COB3O)ncc1C(F)(F)F (stereo not shown) [5-((4-(sec-butylamino)-5-(trifluoromethyl)pyrimidin-2-yl)amino)benzo[c][1,2]oxaborol-1(3H)-ol]
+	CCC(CC)Nc1nc(Nc2ccc3c(c2)COB3O)ncc1Cl [5-((5-chloro-4-(pentan-3-ylamino)pyrimidin-2-yl)amino)benzo[c][1,2]oxaborol-1(3H)-ol]
+	OB1OCc2cc(Nc3ncc(Cl)c(NC4CCCC4)n3)ccc21 [5-((5-chloro-4-(cyclopentylamino)pyrimidin-2-yl)amino)benzo[c][1,2]oxaborol-1(3H)-ol]
+	CCC(C)Nc1nc(Nc2ccc3c(c2)COB3O)ncc1Cl (stereo not shown) [5-((4-(sec-butylamino)-5-chloropyrimidin-2-yl)amino)benzo[c][1,2]oxaborol-1(3H)-ol]
+	CSc1nc(Nc2ccc3c(c2)COB3O)ncc1Cl [5-((5-chloro-4-(methylthio)pyrimidin-2-yl)amino)benzo[c][1,2]oxaborol-1(3H)-ol]
+	CCC(CC)Oc1nc(Nc2ccc3c(c2)COB3O)ncc1C [5-((5-methyl-4-(pentan-3-yloxy)pyrimidin-2-yl)amino)benzo[c][1,2]oxaborol-1(3H)-ol]
+	Cc1cnc(Nc2ccc3c(c2)COB3O)nc1NC1CCCC(C)C1 (stereo not shown) [5-((5-methyl-4-((3-methylcyclohexyl)amino)pyrimidin-2-yl)amino)benzo[c][1,2]oxaborol-1(3H)-ol]
+	CCCC(CC)Nc1nc(Nc2ccc3c(c2)COB3O)ncc1C (stereo not shown) [5-((4-(hexan-3-ylamino)-5-methylpyrimidin-2-yl)amino)benzo[c][1,2]oxaborol-1(3H)-ol]
+	CCC(CC)Nc1ccnc(Nc2ccc3c(c2)COB3O)n1 [5-((4-(pentan-3-ylamino)pyrimidin-2-yl)amino)benzo[c][1,2]oxaborol-1(3H)-ol]
+	CCC(CO)Nc1nc(Nc2ccc3c(c2)COB3O)ncc1Cl (stereo not shown) [5-((5-chloro-4-((1-hydroxybutan-2-yl)amino)pyrimidin-2-yl)amino)benzo[c][1,2]oxaborol-1(3H)-ol]
+	CCC(CC)Nc1nc(Nc2cc(F)c3c(c2)COB3O)ncc1C [7-fluoro-5-((5-methyl-4-(pentan-3-ylamino)pyrimidin-2-yl)amino)benzo[c][1,2]oxaborol-1(3H)-ol]
+	CCC(C)Nc1nc(Nc2ccc3c(c2)COB3O)ncc1F (stereo not shown) [5-((4-(sec-butylamino)-5-fluoropyrimidin-2-yl)amino)benzo[c][1,2]oxaborol-1(3H)-ol]
+	Cc1cnc(Nc2ccc3c(c2)COB3O)nc1Nc1ccccc1OC(F)(F)F [5-((5-methyl-4-((2-(trifluoromethoxy)phenyl)amino)pyrimidin-2-yl)amino)benzo[c][1,2]oxaborol-1(3H)-ol]
+	Cc1cnc(Nc2ccc3c(c2)COB3O)nc1Nc1ccccc1C(F)(F)F [5-((5-methyl-4-((2-(trifluoromethyl)phenyl)amino)pyrimidin-2-yl)amino)benzo[c][1,2]oxaborol-1(3H)-ol]
